Reference: patent publication US7858653B2, “2-imidazoles” (Hoffman-La Roche Inc., priority 2006, dated 2010)

Molecular target: T1, mouse TAAR1 (Mus musculus, UniProt Q923Y8)
T1 construct: expressed in transfected cells; host or cells: HEK293 cells (ATCC # CRL-1573), stably transfected with pIRESneo2 expression plasmid; membranes prepared
Assay: Radioligand binding assay on membranes of HEK293 cells stably expressing TAAR1
Conditions: for Ki: mouse TAAR1, radioligand [3H]-rac-2-(1,2,3,4-tetrahydro-1-naphthyl)-2-imidazoline at 60 nM, 4° C., 30 minutes
Method: Construction of TAAR Expression Plasmids and Stably Transfected Cell Lines
For the construction of expression plasmids the coding sequences of human, rat and mouse TAAR1 were amplified from genomic DNA essentially as described by Lindemann et al. (2005) genomics 85, 372-385. The Expand High Fidelity PCR System (Roche Diagnostics) was used with 1.5 mM Mg^2+ and purified PCR products were cloned into pCR2.1-TOPO cloning vector (Invitrogen) following the instructions of the manufacturer. PCR products were subcloned into the pIRESneo2 vector (BD Clontech, Palo Alto, Calif.), and expression vectors were sequence verified before introduction in cell lines.
HEK293 cells (ATCC # CRL-1573) were cultured essentially as described Lindemann et al. (2005) genomics 85, 372-385. For the generation of stably transfected cell lines HEK293 cells were transfected with the pIRESneo2 expression plasmids containing the TAAR coding sequences (described above) with Lipofectamine 2000 (Invitrogen) according to the instructions of the manufacturer, and 24 hours post transfection the culture medium was supplemented with 1 mg/ml G418 (Sigma, Buchs, Switzerland). After a culture period of about 10 d clones were isolated, expanded and tested for responsiveness to trace amines (all compounds purchased from Sigma) with the cAMP Biotrak Enzyme immunoassay (EIA) System (Amersham) following the non-acetylation EIA procedure provided by the manufacturer.
Membrane Preparation and Radioligand Binding
Cells at confluence were rinsed with ice-cold phosphate buffered saline without Ca^2+ and Mg^2+ containing 10 mM EDTA and pelleted by centrifugation at 1000 rpm for 5 minutes at 4° C. The pellet was then washed twice with ice-cold phosphate buffered saline and the cell pellet was frozen immediately by immersion in liquid nitrogen and stored until use at −80° C. The cell pellet was then suspended in 20 ml HEPES-NaOH (20 mM), pH 7.4 containing 10 mM EDTA, and homogenized with a Polytron (PT 3000, Kinematica) at 10,000 rpm for 10 seconds. The homogenate was centrifuged at 48,000×g for 30 minutes at 4° C. and the pellet resuspended in 20 ml HEPES-NaOH (20 mM), pH 7.4 containing 0.1 mM EDTA (buffer A), and homogenized with a Polytron at 10,000 rpm for 10 seconds. The homogenate was then centrifuged at 48,000×g for 30 minutes at 4° C. and the pellet resuspended in 20 ml buffer A, and homogenized with a Polytron at 10,000 rpm for 10 seconds. Protein concentration was determined by the method of Pierce (Rockford, Ill.). The homogenate was then centrifuged at 48,000×g for 10 minutes at 4° C., resuspended in HEPES-NaOH (20 mM), pH 7.0 including MgCl2 (10 mM) and CaCl2 ([…]) (buffer B) at 200 μg protein per ml and homogenized with a Polytron at 10,000 rpm for 10 seconds.
Binding assay was performed at 4° C. in a final volume of 1 ml, and with an incubation time of 30 minutes. The radioligand [^3H]-rac-2-(1,2,3,4-tetrahydro-1-naphthyl)-2-imidazoline was used at a concentration equal to the calculated Kd value of 60 nM to give a total binding at around 0.1% of the total added radioligand concentration, and a specific binding which represented approximately 70-80% of the total binding. Non-specific binding was defined as the amount of [^3H]-rac-2-(1,2,3,4-tetrahydro-1-naphthyl)-2-imidazoline bound in the presence of the appropriate unlabelled ligand (10 μM). Competing ligands were tested in a wide range of concentrations (10 pM-30 μM). […] Each experiment was performed in duplicate. All incubations were terminated by rapid filtration through UniFilter-96 plates (Packard Instrument Company) and glass filter GF/C, pre-soaked for at least 2 hours in polyethylenimine 0.3%, and using a Filtermate 96 Cell Harvester (Packard Instrument Company). […]

T1 sequence (Q923Y8 whole entry): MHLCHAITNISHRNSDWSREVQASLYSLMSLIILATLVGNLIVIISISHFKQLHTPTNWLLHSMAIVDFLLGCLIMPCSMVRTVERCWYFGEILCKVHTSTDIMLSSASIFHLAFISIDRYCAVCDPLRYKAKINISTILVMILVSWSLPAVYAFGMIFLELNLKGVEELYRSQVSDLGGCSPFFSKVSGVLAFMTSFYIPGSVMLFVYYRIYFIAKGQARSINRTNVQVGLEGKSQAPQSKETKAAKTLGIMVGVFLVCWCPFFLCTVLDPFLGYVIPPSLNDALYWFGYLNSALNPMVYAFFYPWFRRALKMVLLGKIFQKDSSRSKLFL

Structure (SMILES)	Ki [µM]	Kd (TAAR1 membrane binding, species not given, read-out: calculated Kd value of the radioligand) [nM]
CC(Nc1ncc[nH]1)c1ccccc1 (racemic) [Example 9, (R,S)-(1H-Imidazol-2-yl)-(1-phenyl-ethyl)-amine]	0.46	–
Cc1ccccc1C(C)Nc1ncc[nH]1 (racemic) [Example 21, (R,S)-(1H-Imidazol-2-yl)-(1-o-tolyl-ethyl)-amine]	0.81	–
CC(Nc1ncc[nH]1)c1cccc(Cl)c1Cl (racemic) [Example 22, (R,S)-[1-(2,3-Dichloro-phenyl)-ethyl]-(1H-imidazol-2-yl)-amine]	0.076	–
CC(Nc1ncc[nH]1)c1ccccc1Cl (racemic) [Example 29, (RS)-[1-(2-Chloro-phenyl)-ethyl]-(1H-imidazol-2-yl)-amine]	0.24	–
c1ccc2c(c1)CCCC2C1=NCCN1 (racemic) [[^3H]-rac-2-(1,2,3,4-tetrahydro-1-naphthyl)-2-imidazoline, reference compound]	–	60
COC(Cc1ncc[nH]1)c1cccc(Cl)c1 (stereo not shown) [Example 1, 2-[2-(3-Chloro-phenyl)-2-methoxy-ethyl]-1H-imidazole]	0.78	–
Clc1cccc(SCc2ncc[nH]2)c1Cl [Example 3, 2-(2,3-Dichloro-phenylsulfanylmethyl)-1H-imidazole]	0.14	–
Clc1cccc(CNc2ncc[nH]2)c1 [Example 6, (3-Chloro-benzyl)-(1H-imidazol-2-yl)-amine]	0.86	–
Clc1ccc(CNc2ncc[nH]2)cc1Cl [Example 7, (3,4-Dichloro-benzyl)-(1H-imidazol-2-yl)-amine]	0.47	–
Clc1cccc(CNc2ncc[nH]2)c1Cl [Example 8, (2,3-Dichloro-benzyl)-(1H-imidazol-2-yl)-amine]	0.18	–
Cc1cccc(CNc2ncc[nH]2)c1 [Example 11, (1H-Imidazol-2-yl)-(3-methyl-benzyl)-amine]	0.94	–
Fc1cccc(CNc2ncc[nH]2)c1 [Example 16, (3-Fluoro-benzyl)-(1H-imidazol-2-yl)-amine]	0.98	–
c1ccc2cc(CNc3ncc[nH]3)ccc2c1 [Example 24, (1H-Imidazol-2-yl)-naphthalen-2-ylmethyl-amine]	0.67	–
